# In patent publication US20250127896A1, “CHIMERIC TIM4 RECEPTORS AND USES THEREOF” (CERO THERAPEUTICS HOLDINGS, INC., priority 2021, published 2025):
# How the values were obtained:
# Assay type in all cases: cell-based
# phosphatidylserine (PS) = test: Recursive stimulation plate assay: IFN-γ on serial phosphatidylserine exposure; details: 3 serial rounds
# Source text: FIGS. 19A-19C: CER T cells are activated and produce IFN-γ in response to phosphatidylserine engagement in a cell-free in vitro system. FIG. 19A: IFN-γ production in response phosphatidylserine (PS). IFN-γ production was induced in CER-1236 and CER-1234 T cells stimulated with PS (FIG. 19A), but not with phosphatidylethanolamine (PE) (FIG. 19B). […] FIG. 19C: CER1236 T cells are capable of recursive stimulation in vitro. Recursive IFN-γ induction with 3 serial stimulations at the indicated time points following a 24-hour rest after the first stimulation.
# FIG. 43 is a schematic depicting assay design for measuring CER1236 reactivation in response to stimulus by repeated phosphatidylserine stimulation of CER1236 T cells and measurement of IFNγ production.
# CER T-cell activation was assessed by measuring induction of IFN-gamma by plate- and cell-based assays. […] CER T cells were added and IFN-γ levels were measured 24 hours after ligand exposure by ELISA. EC50 concentrations were determined by nonlinear regression (agonist vs. response-variable slope (4 parameters)). […] Cell-based assay: cytokine induction was assessed by multiparametric ELISA using conditioned supernatants harvested after 120 hours from the cytotoxicity assay described below.
# E7 TCR T cells = test: APC-like function: E7 peptide-pulsed CER T cells co-cultured with E7 TCR T cells (activation markers, CT Violet proliferation)
# Method: FIG. 1A: a schematic of pCTX247 (also referred to herein as CER247) and pCTX1107 (also referred to herein as CER1107 or CER1236) chimeric Tim4 receptors and pCTX1107 T cells pulsed with E7 peptides and co-cultured with E7-specific T cells to evaluate their antigen presentation capacity. FIG. 1B: E7-specific proliferation responses were measured by CT Violet dye dilution after 6 days in the presence of autologous CER-T (TLR containing or non-containing CERs) pulsed with E7 peptides. […] All data collected by FACS. Cell tracing show E7 TCR-T cells using an anti-mouse TCRb. E7 TCR-T cells were labeled with CT Violet at the time of co-culture. FIG. 1D: Percentage of proliferated E7 TCR cells in culture among live CD3+ cells determined by flow cytometry based on staining of cell trace violet low E7 TCRb+ cells.
# FIG. 2: T cells containing chimeric Tim4 receptors with a TLR intracellular signaling domain added to the CD3ζ signaling domain (and optionally a CD28 signaling domain) are strong stimulators of autologous E7-specific T cell responses. CER-T cells were pulsed with E7 peptide and tested for their capacity to trigger an autologous E7-specific T cell response. CD25, a T cell activation marker, was evaluated on E7 TCR-T cells, 24 hours after CER-T cells were pulsed with E7 peptides. […]
# NSCLC H1975 cells = test: H1975 NSCLC cell growth with CER1236 T cells and osimertinib (Incucyte); details: 100 nM osimertinib 24 h, then 4.88 nM, E:T 0.25:1, 120 h
# Method: FIG. 39: Graph showing NSCLC H1975 cell growth for cells pretreated with 100 nM osimertinib or vehicle and then co-cultured with CER1236 T cells.
# CER1236 T cells were tested in combination with EGFR tyrosine kinase inhibitor osimertinib on a non-small cell lung cancer (NSCLC) cell line. Ten-thousand NSCLC H1975 cells were cultured for 24 h with 100 nM osimertinib or vehicle (DMSO) and then co-cultured with 2500 CER1236 T cells at an Effector:Target cell ratio of 0.25:1 in the presence or absence of 4.88 nM osimertinib or vehicle. Tumor cell growth was monitored with indicated for 120 h in an Incucyte assay.
substance,measurement,setting,value
"CER-1236: chimeric Tim4 receptor: Tim4 binding domain-CD28tm-CD28-CD3z-TLR2 TIR, SEQ ID NO:19; tested as transduced T cells",IFN-γ response upon serial phosphatidylserine exposure,phosphatidylserine (PS),elicited repeated IFN-γ response upon 3 serial rounds of exposure to phosphatidylserine
same,E7 TCR-T cell surface activation markers CD25 and CD69 upregulated,"E7 TCR T cells; 24 hrs following co-culture, controls 23.1%",41.2%
same,percentage of dividing E7-TCR-T cells,"E7 TCR T cells; by 6 days, controls 8%",44%
same,"H1975 tumor cell growth, combination with osimertinib",NSCLC H1975 cells,synergizes to inhibit H1975 NSCLC cells in vitro
